Laboratory results as given in article PMC6390583 (BMC rheumatology, 2018).
“And” between values parts separate entries of the source, which are not always exact repeats. Equal values may be shown once.

Assays:
MEK2 = MEK2 (Homo sapiens, UniProt P36507); test: trFRET binding kinome profiling
Experimental: (§1) JAK activity assays using isolated kinase domains in the presence of 0.1 mM ATP and trFRET kinome profiling were conducted as described previously (17).

IKKE = IKKE (Homo sapiens, UniProt Q14164); test: trFRET binding kinome profiling
Experimental: as §1

Fyn = Fyn (Homo sapiens, UniProt P06241); test: trFRET binding kinome profiling
Experimental: as §1

Flt1 = Flt1 (Homo sapiens, UniProt P17948); test: trFRET binding kinome profiling
Experimental: as §1

MAP2K3 = MAP2K3 (Homo sapiens, UniProt P46734); test: trFRET binding kinome profiling
Experimental: as §1

CAMKK2 = CAMKK2 (Homo sapiens, UniProt Q96RR4); test: trFRET binding kinome profiling
Experimental: as §1

PAK4KD = molecular target: T1, PAK4KD (Homo sapiens, UniProt O96013); test: trFRET binding kinome profiling
T1 construct: PAK4KD
Experimental: as §1

MEK1 = MEK1 (Homo sapiens, UniProt Q02750); test: trFRET binding kinome profiling
Experimental: as §1

Plk3 = Plk3 (Homo sapiens, UniProt Q9H4B4); test: trFRET binding kinome profiling
Experimental: as §1

DDR1 = DDR1 (Homo sapiens, UniProt Q08345); test: trFRET binding kinome profiling
Experimental: as §1

GRK5 = GRK5 (Homo sapiens, UniProt P34947); test: trFRET binding kinome profiling
Experimental: as §1

PDGFRA V561D = PDGFRA V561D (Homo sapiens, UniProt P16234, V561D); test: trFRET binding kinome profiling
Experimental: as §1

Pim2 = Pim2 (Homo sapiens, UniProt Q9P1W9); test: trFRET binding kinome profiling
Experimental: as §1

TrkB = TrkB (Homo sapiens, UniProt Q16620); test: trFRET binding kinome profiling
Experimental: as §1

EGFR = EGFR (Homo sapiens, UniProt P00533); test: trFRET binding kinome profiling
Experimental: as §1

MST1 = MST1 (Homo sapiens, UniProt Q13043); test: trFRET binding kinome profiling
Experimental: as §1

Akt1 = Akt1 (Homo sapiens, UniProt P31749); test: trFRET binding kinome profiling
Experimental: as §1

CDK9/Cyclin K = CDK9/Cyclin K (Homo sapiens, UniProt P50750); test: trFRET binding kinome profiling
Experimental: as §1

Gsk3b = Gsk3b (Homo sapiens, UniProt P49841); test: trFRET binding kinome profiling
Experimental: as §1

LCK = LCK (Homo sapiens, UniProt P06239); test: trFRET binding kinome profiling
Experimental: as §1

CLK2 = CLK2 (Homo sapiens, UniProt P49760); test: trFRET binding kinome profiling
Experimental: as §1

PKCzeta = PKCzeta (Homo sapiens, UniProt Q05513); test: trFRET binding kinome profiling
Experimental: as §1

CAMK2A = CAMK2A (Homo sapiens, UniProt Q9UQM7); test: trFRET binding kinome profiling
Experimental: as §1

TNK2 = TNK2 (Homo sapiens, UniProt Q07912); test: trFRET binding kinome profiling
Experimental: as §1

JNK1 = JNK1 (Homo sapiens, UniProt P45983); test: trFRET binding kinome profiling
Experimental: as §1

ACVR1 = ACVR1 (Homo sapiens, UniProt Q04771); test: trFRET binding kinome profiling
Experimental: as §1

BTK = BTK (Homo sapiens, UniProt Q06187); test: trFRET binding kinome profiling
Experimental: as §1

Rsk2 = Rsk2 (Homo sapiens, UniProt P51812); test: trFRET binding kinome profiling
Experimental: as §1

CDK8/Cyclin C = CDK8/Cyclin C (Homo sapiens, UniProt P49336); test: trFRET binding kinome profiling
Experimental: as §1

Ck1alpha1 = Ck1alpha1 (Homo sapiens, UniProt P48729); test: trFRET binding kinome profiling
Experimental: as §1

PKG1A = PKG1A (Homo sapiens, UniProt Q13976); test: trFRET binding kinome profiling
Experimental: as §1

MAP4K4 = MAP4K4 (Homo sapiens, UniProt O95819); test: trFRET binding kinome profiling
Experimental: as §1

Zipk = Zipk (Homo sapiens, UniProt O43293); test: trFRET binding kinome profiling
Experimental: as §1

DYRK1A = DYRK1A (Homo sapiens, UniProt Q13627); test: trFRET binding kinome profiling
Experimental: as §1

PKA = PKA (Homo sapiens, UniProt P17612); test: trFRET binding kinome profiling
Experimental: as §1

TAOK2 = TAOK2 (Homo sapiens, UniProt Q9UL54); test: trFRET binding kinome profiling
Experimental: as §1

Rock1 = Rock1 (Homo sapiens, UniProt Q13464); test: trFRET binding kinome profiling
Experimental: as §1

[1] = system: IL-4 induced STAT6 phosphorylation; test: IL-4 induced STAT6 phosphorylation in HEKa; type: cell-based; details: Homo sapiens, JAK 1/3, read-out: Human IC50, IL-4 pSTAT6
Experimental: IL-6 and Oncostatin M (OSM) induced STAT3 phosphorylation was assessed in the human erythroleukemia TF-1 cell line. Erythropoietin-induced STAT5 phosphorylation was assessed in the human UT-7 cell line. IL-2 and IL-15 induced STAT5 phosphorylation was assessed in activated human T-cells. Detection of phosphorylated STATs was accomplished with the SureFire pSTAT5 or pSTAT3 Assay kit (Perkin Elmer, Hopkinton, MA) per standard manufacturer’s protocol, with the exception of an overnight incubation following addition of donor beads before detection on the EnVision (Perkin Elmer, Hopkinton, MA). IFNγ induced STAT1 phosphorylation was assessed in the CD14+ monocyte population in human PBMC by flow cytometry. CD14 BV421 was purchased from BD Biosciences (San Jose, CA). STAT1 PE ([…]) was purchased from ThermoFisher Scientific (Waltham, MA). IL-4 and IL-13 induced STAT6 phosphorylation and IL-31 induced STAT3 phosphorylation were assessed in adult human epithelial keratinocytes (HEKa, ThermoFisher Scientific, Waltham, MA) by flow cytometry. STAT6 PE (pY641) and STAT3 PE (Y705) were purchased from BD Biosciences (San Jose, CA).

Rock1, sequence (Q13464 whole entry, species assumed): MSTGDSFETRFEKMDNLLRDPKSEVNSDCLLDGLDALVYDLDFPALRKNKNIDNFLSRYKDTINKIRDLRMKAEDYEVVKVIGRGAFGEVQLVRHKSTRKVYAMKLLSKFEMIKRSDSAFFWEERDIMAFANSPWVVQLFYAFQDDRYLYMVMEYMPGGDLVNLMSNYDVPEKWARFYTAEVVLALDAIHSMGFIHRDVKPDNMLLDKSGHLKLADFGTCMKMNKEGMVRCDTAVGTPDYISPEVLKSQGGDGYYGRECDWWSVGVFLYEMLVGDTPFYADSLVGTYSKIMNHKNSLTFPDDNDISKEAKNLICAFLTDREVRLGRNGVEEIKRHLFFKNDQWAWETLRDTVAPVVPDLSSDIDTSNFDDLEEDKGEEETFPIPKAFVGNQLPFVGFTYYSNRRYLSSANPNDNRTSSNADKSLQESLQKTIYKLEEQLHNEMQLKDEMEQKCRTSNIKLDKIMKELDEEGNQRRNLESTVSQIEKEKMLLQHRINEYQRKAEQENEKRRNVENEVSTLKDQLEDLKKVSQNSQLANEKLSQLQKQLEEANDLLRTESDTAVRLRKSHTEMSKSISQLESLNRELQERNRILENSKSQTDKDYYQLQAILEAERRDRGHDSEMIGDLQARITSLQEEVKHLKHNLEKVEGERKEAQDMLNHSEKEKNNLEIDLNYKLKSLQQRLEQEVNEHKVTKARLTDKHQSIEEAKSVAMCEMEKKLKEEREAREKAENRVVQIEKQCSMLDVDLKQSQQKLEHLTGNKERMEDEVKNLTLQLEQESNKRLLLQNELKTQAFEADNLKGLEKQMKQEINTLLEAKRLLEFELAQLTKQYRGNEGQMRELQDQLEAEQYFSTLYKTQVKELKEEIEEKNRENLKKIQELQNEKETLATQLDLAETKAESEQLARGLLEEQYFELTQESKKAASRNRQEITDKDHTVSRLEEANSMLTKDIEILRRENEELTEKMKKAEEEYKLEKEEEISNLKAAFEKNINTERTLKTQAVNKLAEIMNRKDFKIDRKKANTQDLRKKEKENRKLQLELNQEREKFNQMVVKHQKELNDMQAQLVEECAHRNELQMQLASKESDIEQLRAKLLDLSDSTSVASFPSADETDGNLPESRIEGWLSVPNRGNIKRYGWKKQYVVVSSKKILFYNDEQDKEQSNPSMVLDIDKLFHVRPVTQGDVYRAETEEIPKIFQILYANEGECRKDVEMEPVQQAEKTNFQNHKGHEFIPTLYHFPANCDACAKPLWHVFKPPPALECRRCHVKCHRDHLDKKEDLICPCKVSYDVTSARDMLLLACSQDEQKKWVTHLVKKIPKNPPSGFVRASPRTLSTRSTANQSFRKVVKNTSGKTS
PKG1A, sequence (Q13976 whole entry): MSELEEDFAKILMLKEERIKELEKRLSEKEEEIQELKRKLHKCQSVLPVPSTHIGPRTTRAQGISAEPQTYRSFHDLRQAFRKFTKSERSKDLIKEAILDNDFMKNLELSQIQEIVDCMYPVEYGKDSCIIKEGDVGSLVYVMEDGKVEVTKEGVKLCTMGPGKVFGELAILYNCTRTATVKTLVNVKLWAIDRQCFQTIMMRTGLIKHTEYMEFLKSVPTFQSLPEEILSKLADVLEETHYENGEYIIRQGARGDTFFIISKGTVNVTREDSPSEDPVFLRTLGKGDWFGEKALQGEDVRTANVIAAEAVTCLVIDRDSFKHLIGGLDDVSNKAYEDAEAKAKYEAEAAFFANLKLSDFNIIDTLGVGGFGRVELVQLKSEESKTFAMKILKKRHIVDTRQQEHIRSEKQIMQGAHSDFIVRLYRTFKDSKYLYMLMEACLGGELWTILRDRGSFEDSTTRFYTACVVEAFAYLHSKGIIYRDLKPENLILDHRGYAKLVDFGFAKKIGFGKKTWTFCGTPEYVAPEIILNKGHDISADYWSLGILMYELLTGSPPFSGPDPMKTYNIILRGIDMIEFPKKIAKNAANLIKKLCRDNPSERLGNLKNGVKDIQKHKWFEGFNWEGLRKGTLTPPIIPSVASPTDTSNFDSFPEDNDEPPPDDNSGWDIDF
MEK1, sequence (Q02750 whole entry, species assumed): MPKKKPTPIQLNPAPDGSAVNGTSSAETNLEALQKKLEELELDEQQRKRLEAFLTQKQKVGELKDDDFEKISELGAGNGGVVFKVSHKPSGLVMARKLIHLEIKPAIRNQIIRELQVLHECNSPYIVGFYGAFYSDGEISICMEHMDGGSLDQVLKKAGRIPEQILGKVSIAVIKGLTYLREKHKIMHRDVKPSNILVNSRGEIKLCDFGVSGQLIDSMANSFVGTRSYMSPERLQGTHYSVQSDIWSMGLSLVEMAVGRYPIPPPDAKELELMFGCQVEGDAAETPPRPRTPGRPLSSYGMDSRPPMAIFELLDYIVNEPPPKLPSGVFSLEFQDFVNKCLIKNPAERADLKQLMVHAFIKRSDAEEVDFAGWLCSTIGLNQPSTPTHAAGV
MAP4K4, sequence (O95819 whole entry, species assumed): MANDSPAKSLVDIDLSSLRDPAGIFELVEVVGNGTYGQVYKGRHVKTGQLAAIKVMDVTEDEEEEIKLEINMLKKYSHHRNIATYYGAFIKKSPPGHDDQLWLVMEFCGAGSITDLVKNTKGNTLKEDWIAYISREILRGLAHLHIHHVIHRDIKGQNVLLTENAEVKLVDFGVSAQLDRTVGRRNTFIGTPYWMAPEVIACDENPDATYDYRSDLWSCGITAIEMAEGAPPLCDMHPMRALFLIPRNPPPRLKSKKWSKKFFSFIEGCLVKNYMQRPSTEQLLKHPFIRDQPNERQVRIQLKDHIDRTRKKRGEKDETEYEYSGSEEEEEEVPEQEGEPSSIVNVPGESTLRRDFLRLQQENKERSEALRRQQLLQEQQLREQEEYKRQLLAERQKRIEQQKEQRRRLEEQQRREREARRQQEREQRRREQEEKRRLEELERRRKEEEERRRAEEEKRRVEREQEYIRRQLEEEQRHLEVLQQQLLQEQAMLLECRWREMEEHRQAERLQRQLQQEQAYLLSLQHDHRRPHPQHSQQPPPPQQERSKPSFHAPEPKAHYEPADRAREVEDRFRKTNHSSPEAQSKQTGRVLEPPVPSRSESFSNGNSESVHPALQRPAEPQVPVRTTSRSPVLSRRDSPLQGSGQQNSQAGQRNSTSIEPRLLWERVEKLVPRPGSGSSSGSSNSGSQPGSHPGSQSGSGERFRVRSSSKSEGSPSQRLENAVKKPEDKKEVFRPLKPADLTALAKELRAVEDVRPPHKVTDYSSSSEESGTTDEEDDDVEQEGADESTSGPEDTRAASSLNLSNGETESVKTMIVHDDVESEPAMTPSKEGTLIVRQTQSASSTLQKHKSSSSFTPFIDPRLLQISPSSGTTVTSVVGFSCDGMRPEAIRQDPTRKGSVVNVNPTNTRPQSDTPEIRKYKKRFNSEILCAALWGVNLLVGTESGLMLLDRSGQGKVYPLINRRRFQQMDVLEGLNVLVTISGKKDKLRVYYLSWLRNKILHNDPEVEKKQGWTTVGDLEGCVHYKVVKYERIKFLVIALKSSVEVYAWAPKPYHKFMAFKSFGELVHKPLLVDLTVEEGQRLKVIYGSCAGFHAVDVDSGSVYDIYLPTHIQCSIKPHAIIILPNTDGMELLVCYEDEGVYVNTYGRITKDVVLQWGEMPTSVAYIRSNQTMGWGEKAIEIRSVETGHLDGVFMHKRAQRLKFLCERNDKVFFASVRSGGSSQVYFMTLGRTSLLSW
Plk3, sequence (Q9H4B4 whole entry, species assumed): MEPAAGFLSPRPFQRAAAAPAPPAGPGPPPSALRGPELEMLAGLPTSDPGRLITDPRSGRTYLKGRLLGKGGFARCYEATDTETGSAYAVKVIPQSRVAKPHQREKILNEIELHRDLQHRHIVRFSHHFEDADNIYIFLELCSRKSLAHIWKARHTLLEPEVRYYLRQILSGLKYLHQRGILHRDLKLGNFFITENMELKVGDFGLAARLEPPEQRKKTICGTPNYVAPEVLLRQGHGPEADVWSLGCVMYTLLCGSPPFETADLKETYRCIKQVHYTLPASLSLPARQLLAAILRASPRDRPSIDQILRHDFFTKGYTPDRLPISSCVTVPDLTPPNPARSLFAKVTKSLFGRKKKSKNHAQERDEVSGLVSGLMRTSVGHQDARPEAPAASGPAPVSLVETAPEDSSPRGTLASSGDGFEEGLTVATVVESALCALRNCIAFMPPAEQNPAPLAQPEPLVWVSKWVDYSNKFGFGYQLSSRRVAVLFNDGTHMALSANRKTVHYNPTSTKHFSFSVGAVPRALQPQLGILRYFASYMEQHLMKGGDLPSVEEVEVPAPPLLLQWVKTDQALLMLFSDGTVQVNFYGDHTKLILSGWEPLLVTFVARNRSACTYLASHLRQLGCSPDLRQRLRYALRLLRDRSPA
Fyn, sequence (P06241 whole entry, species assumed): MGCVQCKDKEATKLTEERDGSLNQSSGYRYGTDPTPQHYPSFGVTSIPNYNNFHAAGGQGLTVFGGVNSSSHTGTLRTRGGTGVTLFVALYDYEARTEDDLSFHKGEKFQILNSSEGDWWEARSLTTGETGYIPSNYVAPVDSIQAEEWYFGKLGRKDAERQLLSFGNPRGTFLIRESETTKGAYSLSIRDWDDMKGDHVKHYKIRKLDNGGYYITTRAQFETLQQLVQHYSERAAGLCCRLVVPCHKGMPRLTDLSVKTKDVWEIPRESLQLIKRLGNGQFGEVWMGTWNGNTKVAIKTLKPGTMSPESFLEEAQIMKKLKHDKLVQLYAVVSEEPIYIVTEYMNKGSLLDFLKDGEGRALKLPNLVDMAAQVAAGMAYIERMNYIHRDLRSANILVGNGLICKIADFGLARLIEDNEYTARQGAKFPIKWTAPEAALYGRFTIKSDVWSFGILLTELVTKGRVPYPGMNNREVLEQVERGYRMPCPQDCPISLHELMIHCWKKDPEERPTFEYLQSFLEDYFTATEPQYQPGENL

Question: Which results are given for `CC[C@@H]1CN(C(=O)NCC(F)(F)F)C[C@@H]1c1cnc2cnc3[nH]ccc3n12` [upadacitinib, (3S,4R)-3-ethyl-4-(3H-imidazo [1,2-a]pyrrolo [2,3-e]pyrazin-8-yl)-N-(2,2,2-trifluoroethyl) pyrrolidine-1-carboxamide]?
Answer: IC50 (MEK2): > 10 µM; IC50 (IKKE): > 10 µM; IC50 (Fyn): > 10 µM; IC50 (Flt1): > 10 µM; IC50 (MAP2K3): > 10 µM; IC50 (CAMKK2): > 10 µM; IC50 (PAK4KD): > 10 µM; IC50 (MEK1): > 10 µM; IC50 (Plk3): > 10 µM; IC50 (DDR1): > 10 µM; IC50 (GRK5): > 7.9 µM; IC50 (PDGFRA V561D): > 10 µM; IC50 (Pim2): > 10 µM; IC50 (TrkB): > 10 µM; IC50 (EGFR): > 10 µM; IC50 (MST1): > 10 µM; IC50 (Akt1): > 10 µM; IC50 (CDK9/Cyclin K): > 10 µM; IC50 (Gsk3b): > 10 µM; IC50 (LCK): > 10 µM; IC50 (CLK2): > 10 µM; IC50 (PKCzeta): > 10 µM; IC50 (CAMK2A): > 10 µM; IC50 (TNK2): 5.1 µM; IC50 (JNK1): > 10 µM; IC50 (ACVR1): > 10 µM; IC50 (BTK): > 10 µM; IC50 (Rsk2): > 9.6 µM; IC50 (CDK8/Cyclin C): > 10 µM; IC50 (Ck1alpha1): > 10 µM; IC50 (PKG1A): > 10 µM; IC50 (MAP4K4): > 10 µM; IC50 (Zipk): > 10 µM; IC50 (DYRK1A): > 10 µM; IC50 (PKA): > 10 µM; IC50 (TAOK2): > 10 µM; IC50 (Rock1): < 1 µM and 0.92 µM; IC50 [1]: 0.002 µM
